From US11767298B2, “Substituted benzimidazoles as inhibitors of transforming growth factor-β kinase” (Duke University, priority 2016, dated 2023)

Columns and labels:
P. berghei [1] = experiment: Liver stage parasite load, luciferase-expressing P. berghei in HepG2 cells; assay type: cell-based, Plasmodium berghei ANKA; details: HepG2 host cells
Experimental: (§1) Cell-based anti-Plasmodium assays. For liver stage assays, 15,000 HepG2 or 8,000 Huh7 cells/well were added to 384-well microtiter plates using a multichannel pipette (Rainin). After 2 hours at 37° C., compounds (0-100 μM) were added to cells in duplicate or triplicate in a final concentration of 1% DMSO. DMSO was used as the negative control. Following compound incubation at 37° C. for ˜1 hr, harvested luciferase-expressing P. berghei ANKA sporozoites were added to the plates at a density of 3,000 sporozoites/well. P. berghei ANKA sporozoites were obtained from harvesting the salivary glands of infected A. stephensi mosquitoes. The plates were spun for 10 min at 1,000 rpm, and then incubated at 37° C. for ˜45 hrs. […] After ˜45 hours at 37° C., liver cell viability was assessed using CellTiter-Fluor (Promega) and then parasite load was determined using Bright-Glo (Promega). The relative fluorescence and luminescence signal intensity of each well was evaluated with an EnVision System. The luminescence signal in the presence of compounds was normalized to the negative control (DMSO). Dose-response analysis was performed with GraphPad Prism to yield the reported EC50 values.
Anti-Plasmodium activity was evaluated in the parasite's liver stage using a previously reported high-throughput assay. In this assay, luciferase-expressing P. berghei (murine) parasites are used to infect human hepatoma cells (HepG2) and parasite load is assessed with a luminometer subsequent to evaluating HepG2 viability using a commercially available quantification kit that measures intracellular protease activity.
(§2) Specifically, their ability to inhibit P. berghei infection in two human hepatoma cell lines (HepG2 and Huh7) as well as cytotoxicity against HepG2 and Huh7 cells was determined as described above. Liver cell cytotoxicity was evaluated with two different commercially available assays, one that tests for intracellular protease activity with a fluorescence reporter and another that relies on the luminescent detection of total ATP.

P. berghei [2] = experiment: Liver stage parasite load, luciferase-expressing P. berghei in Huh7 cells; assay type: cell-based, Plasmodium berghei ANKA; details: Huh7 host cells, read-out: IC50 Liver state (Huh7)
Experimental: as §1, §2

PfPK9 = experiment: UBC13 phosphorylation by PfPK9 (ADP luminescence assay); assay type: biochemical, P. falciparum; details: compared to DMSO
Experimental: Recombinant protein expression and enzyme activity assay. Recombinant GST-tagged PfPK9 was expressed in E. coli BL21(DE3) cells, purified to homogeneity, and the GST tag was cleaved with PreScission Protease (GE Healthcare). To test for inhibition of PfPK9, the ADP detection assay ADP-Glo (Promega) was used to determine ATPase activity of PfPK9 in the presence of the PfUBC13 protein substrate when treated with compounds 1 and 5. Approximately 500 nM PfPK9 was incubated with either compound (10 μM or 500 μM) for 5 min at RT in buffer containing 40 mM Tris, pH 7.5, 20 mM MgCl2, 2 mM MnCl2 and 1 mM DTT prior to assay initiation with 100 μM ATP. The assay was performed in white low-volume 384-well plates (Corning #3824) in triplicate. The assay plate was sealed and subsequently incubated for 8 hrs at 37° C. before ADP detection per manufacturer instructions. The final assay volume was 5 μL with a final concentration of 1% DMSO. A negative control was performed in 1% DMSO and heat inactivated PfPK9 (80° C. for 5 min) was used as a positive control. The luminescence intensity in each well was measured on an EnVision system. Data were normalized to the average luminescence signal of the negative control to provide relative ADP concentrations and graphs were constructed in GraphPad Prism. Data analyses were conducted from three independent experiments. […]

P. berghei EEFs = experiment: Immunofluorescence analysis of P. berghei EEFs in Huh7 cells; assay type: cell-based
Experimental: Immunofluorescence analysis of EEFs. For immunofluorescence analysis of EEFs, Huh7 cells were fixed with 4% paraformaldehyde for 10 min at room temperature (RT), washed thrice with PBS, permeabilized with cooled methanol for 10 min at −20° C. and blocked with 3% BSA in PBS for 30 min at RT. Thereafter, cells were incubated with a primary antibody, mouse anti-PbHSP70 (clone 2E6 1:1000) diluted in blocking buffer overnight at 4° C. Following incubation, samples were washed with PBS and incubated for 1 hr at RT with a secondary antibody, goat anti-mouse AlexaFluor 488 (1:400, Life Technologies). Finally, nuclei were stained with DAPI for 15 min at RT. For evaluation of fluorescence intensity from EEFs after infection with GFP-expressing P. berghei sporozoites, DAPI nucleus staining was performed following cell fixation. After five washes with PBS, ˜40 μl PBS was left in wells and images were acquired on a Zeiss Axio Observer widefield fluorescence microscope.
To further investigate the effect of compound 1 during malaria's liver stage, immunofluorescence assays were performed. Infected Huh7 cells were treated with 10 μM or 30 μM compound 1 for various period of time ranging from 0-24 h post-infection (hpi), 24-48 hpi and 0-48 hpi, and subsequently labeled with P. berghei HSP70 antibodies at 48 hpi. […] EEF size as compared to DMSO treated cells at all time periods tested (One-way ANOVA P<0.0001). The number of P.b. EEFs was not affected by 10 μM compound 1 as compared to DMSO treatment (FIG. 4B; One-way ANOVA P=0.0804). Similarly, treatment of infected cells with 30 μM compound 1 led to increased P.b. EEF size when added either for 0-24 hpi or 24-48 hpi. (FIGS. 4C and 4E; One-way ANOVA P<0.0001). […] Moreover, total fluorescence signal from GFP-expressing P.b. EEFs decreased with compound 1 when added for a period of 48 h post-infection. […] EEF size was increased by 10 μM compound 1 as compared to DMSO treated cells.

ATP-binding proteins = experiment: ATP-beads off-target elution, HepG2 whole-cell lysates; details: uninfected HepG2 lysate; compared to DMSO control

Q: With CCCn1c(NC(=O)c2cccc(C(N)=O)c2)nc2ccccc21 [HS-206 (1), (E)-N-(1-Propyl-1,3-dihydro-2H-benzo[d]imidazol-2-ylidene)isophthalamide] as the molecule, how does the IC50 (P. berghei [1]; Plasmodium berghei, HepG2, parasite load) read?
A: The IC50 was roughly 7 µM.

Q: And the IC50 (P. berghei [1]; parasite load)?
A: The IC50 was 6.6 µM.

Q: What about the IC50 (P. berghei [2]; Plasmodium berghei, Huh-7, parasite load) of the same molecule?
A: The IC50 was roughly 7 µM.

Q: And the IC50 (P. berghei [2]; parasite load)?
A: The IC50 was 7.3 µM.

Q: And the “UBC13 phosphorylation by PfPK9” value (PfPK9)?
A: Its value is “significantly decreased”.

Q: And the “P.b. EEF size” value (P. berghei EEFs; 10 μM, 0-24, 24-48 and 0-48 hpi, Huh7)?
A: Its value is “significantly increased”.

Q: What about the “number of P.b. EEFs” value (P. berghei EEFs; 10 μM, Huh7) of the same molecule?
A: Its value is “not affected”.

Q: What about the “number of P.b. EEFs” value (P. berghei EEFs; 30 μM, added 0-24 hpi or 0-48 hpi) of the same molecule?
A: The value was “decreased”.

Q: And the “P.b. EEF size” value (P. berghei EEFs; 30 μM, added 0-24 hpi or 24-48 hpi, Huh7)?
A: Its value is “increased”.

Q: And the “number of P.b. EEFs” value (P. berghei EEFs; 30 μM, treatment from 24-48 hpi)?
A: Its value is “did not significantly decreased”.

Q: What about the “total fluorescence signal from GFP-expressing P.b. EEFs” value (P. berghei EEFs; 10 and 30 μM, 48 h post-infection) of the same molecule?
A: The value was “decreased”.

Q: And the “elution of ATP-binding proteins from ATP-sepharose beads” value (ATP-binding proteins)?
A: The value was “did not lead to any significant elution of ATP-binding proteins”.
